Source: paper PMC12693327, “SERAAK2 as a Serotonin Receptor Ligand: Structural and Pharmacological In Vitro and In Vivo Evaluation” (Molecules, 2025)

How the values were obtained:
SH-SY5Y cells = experiment: MTS cytotoxicity assay in SH-SY5Y cells; type: cell-based, human; conditions: 30 µM, 72 h
Protocol: The cytotoxic potential of SERAAK2 was evaluated in two human-derived cell lines chosen for their physiological relevance: HepG2 (hepatocellular carcinoma) and SH-SY5Y (neuroblastoma). […] It is particularly noteworthy that the use of the SERAAK2 compound at a concentration of 30 µM reduces the number of viable cells below the level of the positive control (doxorubicin) at the same concentration (Table 3). […] Under the experimental conditions used, after 72 h of incubation, a fraction of doxorubicin-treated cells remains metabolically active and generates a low signal in the MTS assay. The enhanced signal reduction observed in the MTS assay for the tested compound, compared to doxorubicin, indicates strong cytotoxic activity leading to necrosis of the entire cell population.
An assessment of the cytotoxic potential of SERAAK2 was carried out utilizing the colorimetric MTS assay. This investigation was executed on both HepG2 and SH-SY5Y cell lines, adhering to an identical procedure. The cell lines, sourced from the American Type Culture Collection (Manassas, VA, USA), were cultured under standard conditions (5% CO2, 37 °C) in DMEM/F12 medium (#31330-038, ThermoFisher Scientific, Waltham, MA, USA). The medium was supplemented with 10% Fetal Bovine Serum (FBS, #A5256801, ThermoFisher Scientific) and a Penicillin–Streptomycin solution (#15140-122, ThermoFisher Scientific) until their use in the study. Cells within passage numbers 15 to 25 were plated in 96-well plates at a density of 5000 cells per well in 200 μL of medium and allowed to adhere during a 24 h incubation at 37 °C with 5% CO2. […] The plates were then subsequently returned to the 37 °C incubator, after which absorbance was recorded with a Spark microplate reader; this measurement occurred after 1 h for the HepG2 line and 3 h for the SH-SY5Y line. The ultimate cell viability percentage was determined by comparing results to the control wells, which represented 100% viability, and the wells treated with 10 μM doxorubicin, which were defined as 0% viability. […]

mice [1] = experiment: Amphetamine-induced hyperactivity; type: in vivo; conditions: amphetamine 3 mg/kg, vs saline-treated group, p < 0.05
Protocol: The investigated compound (SER2AAK2) was bought from Enamine (purity over 95%) and in all tests was administered intraperitoneally (i.p.), spread in a drop of Tween 80, and diluted with an aqueous solution of 0.5% methylcellulose (tylose) and injected 60 min before the tests in a volume of 10 mL/kg. Control groups received tylose injections of the same volume and via the same route of administration.
Locomotor activity of the mice was assessed using the Opto-Varimex-4 Auto-Track system (Columbus Instruments, OH, USA). Each mouse was placed individually in a testing cage for 25 min—5 min for acclimatization, followed by 20 min of activity recording. (6a) The total distance traveled (in centimeters) was measured. Cages were cleaned with 10% ethanol between sessions.

CYP3A4 = biological target: T1, CYP3A4 (Homo sapiens, UniProt P08684); parameters: method as in PMID 40430337; conditions: cited from earlier work
T1 construct: purchased Promega
T1 sequence (P08684 whole entry): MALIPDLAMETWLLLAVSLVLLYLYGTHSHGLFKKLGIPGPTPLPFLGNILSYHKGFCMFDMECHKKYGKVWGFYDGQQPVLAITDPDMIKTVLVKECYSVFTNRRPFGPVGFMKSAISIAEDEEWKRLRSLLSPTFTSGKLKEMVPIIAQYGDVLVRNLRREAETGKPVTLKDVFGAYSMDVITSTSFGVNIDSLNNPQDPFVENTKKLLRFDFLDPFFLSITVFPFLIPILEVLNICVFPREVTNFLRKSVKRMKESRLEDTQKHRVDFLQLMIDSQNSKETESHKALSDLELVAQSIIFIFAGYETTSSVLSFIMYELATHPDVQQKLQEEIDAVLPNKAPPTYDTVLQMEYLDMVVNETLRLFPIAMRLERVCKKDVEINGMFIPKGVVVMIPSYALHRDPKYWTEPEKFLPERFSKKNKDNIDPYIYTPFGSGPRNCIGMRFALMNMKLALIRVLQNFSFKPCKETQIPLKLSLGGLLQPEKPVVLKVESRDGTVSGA

mice [2] = system: mice; parameters: method as in PMID 40430337; conditions: 30–60 mg/kg; cited from earlier work
mice [3] = system: mice; parameters: method as in PMID 40430337; conditions: 30 mg/kg; cited from earlier work
mice [4] = system: mice; parameters: method as in PMID 40430337; conditions: 30 mg/kg; cited from earlier work; remark: listed apart in the source
[5] = parameters: method as in PMID 40430337; conditions: cited from earlier work
mice [6] = system: mice; parameters: method as in PMID 40430337; conditions: 30–60 mg/kg, rotarod and chimney; cited from earlier work
CYP2D6 = CYP2D6 (Homo sapiens, UniProt P10635); parameters: purchased Promega; method as in PMID 40430337; conditions: cited from earlier work
CYP2D6, sequence (P10635 whole entry): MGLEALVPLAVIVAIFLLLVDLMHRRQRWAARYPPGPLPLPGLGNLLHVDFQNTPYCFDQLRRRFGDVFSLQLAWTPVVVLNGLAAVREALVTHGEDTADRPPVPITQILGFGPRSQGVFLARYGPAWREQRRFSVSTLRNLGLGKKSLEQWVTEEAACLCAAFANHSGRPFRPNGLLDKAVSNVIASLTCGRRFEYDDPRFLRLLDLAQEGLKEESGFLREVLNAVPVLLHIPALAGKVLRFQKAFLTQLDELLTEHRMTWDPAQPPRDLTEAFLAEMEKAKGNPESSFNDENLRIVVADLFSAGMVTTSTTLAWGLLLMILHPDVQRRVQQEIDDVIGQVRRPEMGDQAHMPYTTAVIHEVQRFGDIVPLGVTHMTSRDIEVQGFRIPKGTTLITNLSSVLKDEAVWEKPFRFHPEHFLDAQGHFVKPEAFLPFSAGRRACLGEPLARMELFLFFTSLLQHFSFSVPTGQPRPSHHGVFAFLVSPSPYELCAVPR

mice [7] = system: mice; parameters: method as in PMID 40430337; conditions: 30 mg/kg; cited from earlier work; remark: listed apart in the source

## COc1cccc2c1C(=O)c1c(O)c3c(c(O)c1C2=O)C[C@@](O)(C(=O)CO)C[C@@H]3O[C@H]1C[C@H](N)[C@H](O)[C@H](C)O1 [DOX, Doxorubicin, reference compound]
SH-SY5Y cells
  Percentage Reduction in the Number of Viable SH-SY5Y Cells [Mean ± SEM]: 102 ± 1%

## CC(N)Cc1ccccc1 (stereo not shown) [amphetamine, reference compound]
Mice [1]
  locomotor activity after amphetamine alone: significantly increased the locomotor activity

## OC(COC(c1ccccc1)c1ccccc1)CN1CCN(C(c2ccccc2)c2ccccc2)CC1 (stereo not shown) [SERAAK1]
CYP3A4
  CYP3A4 induction (increase of activity): 3.5 fold
Mice [2]
  Spontaneous locomotor activity: no change (30–60 mg/kg)
Mice [3]
  Forced swim test (FST), immobility: ↓ immobility (30 mg/kg)—antidepressant-like effect connected with serotonergic modulation
Mice [4]
  Elevated plus maze (EPM), open arm time and entries: ↑ open arm time and entries (30 mg/kg)—anxiolytic effect
[5]
  Pe (PAMPA): < 0.01 ×10⁻⁶ cm/s
Mice [6]
  Motor coordination (rotarod, chimney): no impairment (30–60 mg/kg)—stable motor profile
CYP2D6
  IC50: 720 nM
Mice [7]
  amphetamine-induced hyperactivity: ↓ hyperactivity (30 mg/kg)
